{"source": "PubChem BioAssay AID1259409", "about": "(Chemical Carcinogenesis Research Information System (CCRIS), 2018)", "origin": "cited, not measured here", "system": "rodent chemically induced tumor inhibition, incidence and multiplicity", "experiment": "CCRIS tumor inhibitor studies", "settings": "Promoter: NONE USED"}
{"smiles": "O=C1O[C@H]([C@@H](O)CO)C(O)=C1O", "values": [{"measurement": "tumour outcome (control, treated, inhibition, significance)", "setting": "Carcinogen: N-METHYL-N-NITROSOUREA, 684-93-5, Dose [Inhibitor]: 1% IN 20% FAT DIET DAILY STARTING 2 WK BEFORE START OF CARCINOGEN TREATMENT AND CONTINUING FOR DURATION OF STUDY (STUDY, Route [Inhibitor]: ORAL, Species: RAT, Strain/Sex: F344/FEMALE, Target Tissue: Type of Lesion: MAMMARY GLAND: FIBROADENOMA, Dose [Carcinogen]: 2 MG 2/WK FOR 2 WK", "result": "25%, 38%, -52%, not significant"}, {"measurement": "tumour outcome (control, treated, inhibition, significance)", "setting": "Carcinogen: N-NITROSOMORPHOLINE, 59-89-2, Dose [Inhibitor]: 22.7 G/KG OF DIET 5 D/WK FOR 2 YR STARTING SIMULTANEOUSLY WITH CARCINOGEN TREATMENT AT 8 WK OF AGE AND CONTINUING FOR DU, Route [Inhibitor]: ORAL, Species: RAT, Strain/Sex: MRC/MALE, Target Tissue: Type of Lesion: FORESTOMACH: SQUAMOUS CELL PAPILLOMA, SQUAMOUS CELL CARCINOMA, Dose [Carcinogen]: 0.15 G/L DRINKING WATER 5 D/WK FOR 2 YR", "result": "1/41 (2%), 4/47 (9%), -350%, not calculated"}, {"measurement": "tumour outcome (control, treated, inhibition, significance)", "setting": "Carcinogen: N-NITROSOMORPHOLINE, 59-89-2, Dose [Inhibitor]: 22.7 G/KG OF DIET 5 D/WK FOR 2 YR STARTING SIMULTANEOUSLY WITH CARCINOGEN TREATMENT AT 8 WK OF AGE AND CONTINUING FOR DU, Route [Inhibitor]: ORAL, Species: RAT, Strain/Sex: MRC/MALE, Target Tissue: Type of Lesion: LIVER: KUPFFER CELL SARCOMA, Dose [Carcinogen]: 0.15 G/L DRINKING WATER 5 D/WK FOR 2 YR", "result": "28/41 (68%), 34/47 (72%), -6%, not calculated"}, {"measurement": "tumour outcome (control, treated, inhibition, significance)", "setting": "Carcinogen: N-NITROSOMORPHOLINE, 59-89-2, Dose [Inhibitor]: 22.7 G/KG OF DIET 5 D/WK FOR 2 YR STARTING SIMULTANEOUSLY WITH CARCINOGEN TREATMENT AT 8 WK OF AGE AND CONTINUING FOR DU, Route [Inhibitor]: ORAL, Species: RAT, Strain/Sex: MRC/MALE, Target Tissue: Type of Lesion: LIVER: LIVER CELL CARCINOMA, Dose [Carcinogen]: 0.15 G/L DRINKING WATER 5 D/WK FOR 2 YR", "result": "17/41 (41%), 20/47 (43%), -5%, not calculated"}, {"measurement": "tumour outcome (control, treated, inhibition, significance)", "setting": "Carcinogen: TRANS-5-AMINO-3-[2-(5-NITRO-2-FURYL)VINYL]-1,2,4-OXADIAZOLE;SQL8506, 28754-68-9, Carcinogen: TRANS-5-AMINO-3-[2-(5-NITRO-2-FURYL)VINYL]-1,2,4-OXADIAZOLE;SQL8506, 28754-68-9, Dose [Inhibitor]: 2 G/KG 16 HR BEFORE THE 1ST CARCINOGEN DOSE FOLLOWED BY ADDITIONAL DOSES IMMEDIATELY BEFORE EACH DOSE OF CARCINOGEN (STU, Route [Inhibitor]: INTRAPERITONEAL, Species: MOUSE, Strain/Sex: CD-1/FEMALE, Target Tissue: Type of Lesion: HEMATOPOIETIC SYSTEM: MYELOID LEUKEMIA, Dose [Carcinogen]: 1 G/KG 2/D FOR 5 D EVERY 4 WK FOR 3 COURSES OF TREATMENT", "result": "7/137 (5%), 3/45 (7%), -40%, not calculated"}, {"measurement": "tumour outcome (control, treated, inhibition, significance)", "setting": "Carcinogen: TRANS-5-AMINO-3-[2-(5-NITRO-2-FURYL)VINYL]-1,2,4-OXADIAZOLE;SQL8506, 28754-68-9, Carcinogen: TRANS-5-AMINO-3-[2-(5-NITRO-2-FURYL)VINYL]-1,2,4-OXADIAZOLE;SQL8506, 28754-68-9, Dose [Inhibitor]: 2 G/KG 16 HR BEFORE THE 1ST CARCINOGEN DOSE FOLLOWED BY ADDITIONAL DOSES IMMEDIATELY BEFORE EACH DOSE OF CARCINOGEN (STU, Route [Inhibitor]: INTRAPERITONEAL, Species: MOUSE, Strain/Sex: CD-1/FEMALE, Target Tissue: Type of Lesion: LYMPHOID TISSUE: NONTHYMIC LYMPHOMA, Dose [Carcinogen]: 1 G/KG 2/D FOR 5 D EVERY 4 WK FOR 3 COURSES OF TREATMENT", "result": "8/137 (6%), 2/45 (4%), 33%, not calculated"}, {"measurement": "tumour outcome (control, treated, inhibition, significance)", "setting": "Carcinogen: TRANS-5-AMINO-3-[2-(5-NITRO-2-FURYL)VINYL]-1,2,4-OXADIAZOLE;SQL8506, 28754-68-9, Carcinogen: TRANS-5-AMINO-3-[2-(5-NITRO-2-FURYL)VINYL]-1,2,4-OXADIAZOLE;SQL8506, 28754-68-9, Dose [Inhibitor]: 2 G/KG 16 HR BEFORE THE 1ST CARCINOGEN DOSE FOLLOWED BY ADDITIONAL DOSES IMMEDIATELY BEFORE EACH DOSE OF CARCINOGEN (STU, Route [Inhibitor]: INTRAPERITONEAL, Species: MOUSE, Strain/Sex: CD-1/FEMALE, Target Tissue: Type of Lesion: LYMPHOID TISSUE: THYMIC LYMPHOMA, Dose [Carcinogen]: 1 G/KG 2/D FOR 5 D EVERY 4 WK FOR 3 COURSES OF TREATMENT", "result": "22/137 (16%), 7/45 (16%), 0%, not calculated"}, {"measurement": "tumour outcome (control, treated, inhibition, significance)", "setting": "Carcinogen: TRANS-5-AMINO-3-[2-(5-NITRO-2-FURYL)VINYL]-1,2,4-OXADIAZOLE;SQL8506, 28754-68-9, Carcinogen: TRANS-5-AMINO-3-[2-(5-NITRO-2-FURYL)VINYL]-1,2,4-OXADIAZOLE;SQL8506, 28754-68-9, Dose [Inhibitor]: 2 G/KG 16 HR BEFORE THE 1ST CARCINOGEN DOSE FOLLOWED BY ADDITIONAL DOSES IMMEDIATELY BEFORE EACH DOSE OF CARCINOGEN (STU, Route [Inhibitor]: INTRAPERITONEAL, Species: MOUSE, Strain/Sex: CD-1/FEMALE, Target Tissue: Type of Lesion: STOMACH: SQUAMOUS CARCINOMA, Dose [Carcinogen]: 1 G/KG 2/D FOR 5 D EVERY 4 WK FOR 3 COURSES OF TREATMENT", "result": "60/137 (44%), 14/45 (31%), 30%, not calculated"}, {"measurement": "tumour outcome (control, treated, inhibition, significance)", "setting": "Carcinogen: UV IRRADIATION, Dose [Inhibitor]: 0.3% IN DIET BEGINNING 10 D PRIOR TO CARCINOGEN DOSE AND CONTINUING FOR DURATION OF STUDY (STUDY DURATION: 27 WK), Route [Inhibitor]: ORAL, Species: MOUSE, Strain/Sex: SKH/HRL/FEMALE, Target Tissue: Type of Lesion: SKIN: CARCINOMA OR PAPILLOMA, Dose [Carcinogen]: 1.13 J/CM2/D INCREASED EVERY 2 WK TO A FINAL VALUE OF 1.97 J/CM2/D 5 D/WK FOR 15 WK (TOTAL EXPOSURE: 135 J/CM2)", "result": "23/44 (52%), 24/39 (62%), -19%, not calculated"}, {"measurement": "tumour outcome (control, treated, inhibition, significance)", "setting": "Carcinogen: UV IRRADIATION, Dose [Inhibitor]: 5% IN DIET BEGINNING 10 D PRIOR TO CARCINOGEN DOSE AND CONTINUING FOR DURATION OF STUDY (STUDY DURATION: 27 WK), Route [Inhibitor]: ORAL, Species: MOUSE, Strain/Sex: SKH/HRL/FEMALE, Target Tissue: Type of Lesion: SKIN: PAPILLOMA OR CARCINOMA, Dose [Carcinogen]: 1.13 J/CM2/D INCREASED EVERY 2 WK TO A FINAL VALUE OF 1.97 J/CM2/D 5 D/WK FOR 15 WK (TOTAL EXPOSURE: 135 J/CM2)", "result": "23/44 (52%), 15/38 (39%), 25%, not calculated"}, {"measurement": "tumour outcome (control, treated, inhibition, significance)", "setting": "Carcinogen: UV IRRADIATION, Dose [Inhibitor]: 10% IN DIET BEGINNING 10 D PRIOR TO CARCINOGEN DOSE AND CONTINUING FOR DURATION OF STUDY (STUDY DURATION: 27 WK), Route [Inhibitor]: ORAL, Species: MOUSE, Strain/Sex: SKH/HRL/FEMALE, Target Tissue: Type of Lesion: SKIN: PAPILLOMA OR CARCINOMA, Dose [Carcinogen]: 1.13 J/CM2/D INCREASED EVERY 2 WK TO A FINAL VALUE OF 1.97 J/CM2/D 5 D/WK FOR 15 WK (TOTAL EXPOSURE: 135 J/CM2)", "result": "23/44 (52%), 14/40 (35%), 33%, not calculated"}, {"measurement": "outcome", "setting": "Dose [Inhibitor]: 22.7 G/KG OF DIET 5 D/WK FOR 2 YR STARTING SIMULTANEOUSLY WITH CARCINOGEN TREATMENT AT 8 WK OF AGE AND CONTINUING FOR DU, Route [Inhibitor]: ORAL, Species: RAT, Strain/Sex: MRC/MALE, Target Tissue: Type of Lesion: FORESTOMACH: SQUAMOUS CELL PAPILLOMA, SQUAMOUS CELL CARCINOMA", "result": "0/37 (0%), 21/39 (54%), not calculated"}, {"measurement": "tumour outcome (control, treated, inhibition, significance)", "setting": "Dose [Inhibitor]: 22.7 G/KG OF DIET 5 D/WK FOR 2 YR STARTING SIMULTANEOUSLY WITH CARCINOGEN TREATMENT AT 8 WK OF AGE AND CONTINUING FOR DU, Route [Inhibitor]: ORAL, Species: RAT, Strain/Sex: MRC/MALE, Target Tissue: Type of Lesion: LIVER: KUPFFER CELL SARCOMA", "result": "13/37 (35%), 7/39 (18%), 49%, not significant"}, {"measurement": "tumour outcome (control, treated, inhibition, significance)", "setting": "Dose [Inhibitor]: 22.7 G/KG OF DIET 5 D/WK FOR 2 YR STARTING SIMULTANEOUSLY WITH CARCINOGEN TREATMENT AT 8 WK OF AGE AND CONTINUING FOR DU, Route [Inhibitor]: ORAL, Species: RAT, Strain/Sex: MRC/MALE, Target Tissue: Type of Lesion: LIVER: LIVER CELL CARCINOMA", "result": "12/37 (32%), 10/39 (26%), 19%, not significant"}]}
